Legend:
[1] = Anti-accretion test (hot roll cells with steel bars and shale chips); conditions: additive amount per 350 ml test fluid as in fluid description; 50 g Arne clay chips; rolled 30 minutes at room temperature
Skeletonema costatum = experiment: Marine algal growth inhibition test (ISO/DP 10253); assay type: cell-based; conditions: concentrations 0.1 to 100.0 mg/l seawater
Protocol: The test was carried out according the ISO protocol ISO/DP 10253—Water quality—Marine algal growth inhibition test with Skeletonema costatum and Phaeodactylum tricornutum.
A culture of the marine algae Skeletonema costatum was exposed to a series of test concentrations of Additive 1 In addition to a control test, concentrations ranging from 0.1 to 100.0 mg/I seawater were tested. The test lasted for 72 hours, and EC50 (72 hours) was calculated to be higher than 10.0 mg/litre.

Molecule | accretion % (wt % of shale accreted on metal surface) [1] [%] | EC50 (72 hours) algal growth inhibition (Skeletonema costatum)
[Cl-].[K+] [KCl, potassium chloride, reference compound] | >70 | –
triethanolamine trioleate [Additive 1] | 10 | higher than 10.0 mg/litre

Reference: patent publication US8932997B2, “Anti-accretion agents for drilling fluids” (Lamberti SpA, priority 2008, dated 2015)
